Source: patent publication USRE47245E1, “Pro-angiogenic peptides and uses thereof” (Susavion Biosciences, Inc., priority 2006, dated 2019)
Where no end group is shown, it is not given here.

Legend:
[1] = tested on: 786-0 human renal cell adenocarcinoma cell line; assay: Pro-angiogenic activity: growth of xenograft tumor in nude mouse; type: in vivo, nude mouse (nu/nu); conditions: in combination with the WNSTL construct
Description: Tumors require vascularization to obtain nutrients to support growth. Therefore, stimulation of growth of a tumor in response to administration of a construct of this invention is an indication of angiogenesis. For this example, a xenograph model system with the nude mouse (nu/nu) was used to determine the effect of peptide on growth of 786-0 human renal cell adenocarcinoma cell line injected into the flank of a mouse so as to induce a tumor. After the tumor was established, peptide was injected subcutaneously on alternate days. The weight of the tumor was estimated by calculation of the volume.
FIG. 4 illustrates data resulting from assays for pro-angiogenic activity for one embodiment of the invention. […] The peptide was also assayed in combination with Sorafenib, an anti-angiogenic drug.

[2] = tested on: macrophages in PBMC cultures; assay: Stimulation of phagocytosis: macrophages engulfing microspheres opsonized with anti-HIV antibodies; type: cell-based, human; conditions: PBMC cultures pretreated; control cultures 0 to 3 beads
Description: The activity of the peptides to stimulate phagocytosis was assessed by the ability of macrophages to engulf microspheres opsonized with anti-HIV antibodies. A biotin-tagged peptide epitope of a surface protein of HIV-1 was bound to streptavidin on the surface of the beads. An antibody preparation that was raised against this epitope was then bound to the HIV peptide. The beads were then washed and presented to PBMC cultures pretreated with peptides. Macrophages in cultures not treated with peptides had little, if any, phagocytic activity. In multiple control cultures, the number of beads within a macrophage-like cell ranged from 0 to 3. In the cultures treated with peptide constructs containing four copies of the peptide sequences WNSTL (SEQ ID NO:1), NQHTPR (SEQ ID NO:2), or VQATQS (SEQ ID NO:8), an average of 10 beads were counted in each phagocytic cell, with no substantial difference between peptide constructs.

[3] = tested on: peripheral blood mononuclear cells (PBMCs); assay: Regulation of cytokine release: cytokine antibody array on medium of PBMC cultures; type: cell-based, human; conditions: PBMCs in serum, 4 hr; construct 100 nM
Description: To determine whether the peptides regulate induction or inhibition of release of cytokines, cultured peripheral blood mononuclear cells (PBMCs) were treated with one peptide embodiment of the invention and, after 4 hour incubation, the medium was collected and assayed for changes in the amounts of 40 different cytokines. The peptide construct containing four copies of WNSTL (SEQ ID NO:1), illustrated in FIG. 2A, was added at a concentration of 100 nM in each of the assays. The PBMC cultures were established with cells from Cellular Technology, Ltd. (Shaker Heights, Ohio). Approximately 3 million cells of frozen human PBMCs were thawed at 37° C. and transferred to a 50 mL conical tube where 8 mL of wash medium were added slowly. Then an additional 8 mL were added and swirled to mix. The cells were then centrifuged at 330 g for 10 min, the supernatant was removed and the pellet was resuspended in 10 mL wash medium and centrifuged as above. The washed cells were then resuspended in RPMI 1640 medium containing 10% FBS to about 6 million cells per mL and 100 μL of the suspension were added into each well of a 96-well microtiter plate and incubated overnight at 37° C. in humidified 5% CO2. After 24 hr, the medium was replaced with 200 μL fresh RPMI 1640 medium containing 10% FBS and incubated at 37° C. in humidified 5% CO2 for 2 days. For the data shown in TABLE 1, an aliquot of the peptide construct was added to samples in duplicate at a final concentration of 5 nM or 100 nM and incubated at 37° C. in humidified 5% CO2 for 4 hr. For other experiments (data not included), the incubation was continued for 24 hr. The medium was then removed and stored at […]. The samples were analyzed for production of cytokines. One set of control cells was not treated with an experimental agent. A second set of control cells was treated with LPS, the agent commonly used to induce production of a variety of inflammatory cytokines.
Assays of cytokine levels in samples of culture media were performed using methods developed by RayBiotech, Inc. (Norcross, Ga.). In this technology, membrane arrays of antibodies against cytokines were incubated with samples of media. After washing, the array was incubated with a cocktail of all antibodies tagged with biotin. The membrane was then washed free of unbound antibodies and incubated with streptavidin labeled with a fluorescent dye. After a final wash, the membrane arrays were read in a fluorescence detector and the intensities of the spots quantitated to obtain relative values.
One set of control samples was not treated with peptide and a second set of control samples was treated with lipopolysaccharide (LPS) in the absence of the peptide construct. The structure of the construct is illustrated in FIG. 2A. […] The decrease in IL-8 concentration in the peptide-treated sample, as compared with the amount of IL-8 in the sample treated with the proto-typical inflammatory agent LPS, is particularly notable. […] The increase in the proangiogenic PDGF-BB and the decrease in the inflammatory IL-8, without concomitant stimulation of inflammation, are of particular importance with respect to wound healing. […]

Compound | effect on the peptide-enhanced tumor growth [1] | average beads counted in each phagocytic cell [2] | Relative concentration of Eotaxin [3] | Relative concentration of Eotaxin-2 [3] | Relative concentration of IL-12p40 [3] | Relative concentration of IL-12p70 [3] | Relative concentration of IL-15 [3] | Relative concentration of IL-16 [3] | Relative concentration of IL-17 [3] | Relative concentration of IL-21 [3] | Relative concentration of M-CSF [3] | Relative concentration of MCP-2 [3] | Relative concentration of MIG [3] | Relative concentration of MIP-1b [3] | Relative concentration of TIMP-2 [3] | Relative concentration of TNF-β [3] | Relative concentration of sTNF RII [3]
CNC(=O)c1cc(Oc2ccc(NC(=O)Nc3ccc(Cl)c(C(F)(F)F)c3)cc2)ccn1 [Sorafenib, reference compound] | strongly (but not completely) inhibited |  |  |  |  |  |  |  |  |  |  |  |  |  |  |  | 
IFN-γ: cytokine Interferon-gamma used as comparison treatment [reference compound] |  | roughly 15 beads |  |  |  |  |  |  |  |  |  |  |  |  |  |  | 
NQHTPR: branched construct: four copies of core sequence NQHTPR, each via GGGS linker on tri-lysine framework (also: tetramer: four copies each via GGGS linker on tri-lysine framework (branched)) |  | 10 beads | 57 | 310 | 45 | 65 | 146 | 8 | 14 | 200 | 116 | 90 | 100 | 777 | 110 | 84 | 26
